The test system of the assay is D-amino acid transaminase. In words: Effect of L-amino acid concentration on activity of D-amino acid transaminase. To be noted: 0-20 mM L-homoalanine in 20 mM D-homoalanine, 20 mM pyruvate, pH 7, 37° C., 10 min; 2-oxobutyrate measured. The assay is classed as biochemical, Bacillus sphaericus. How it is done: For continuous deracemization of a racemic amino acid with the D-amino acid transaminase purified in Example 7, L-amino acid as a final product should not affect the activity of the D-amino acid transaminase. Deterioration in the activity of the enzyme by the final product makes it difficult to induce continuous reactions. The activities of the D-amino acid transaminase were confirmed at different concentrations (0, 1, 3, 5, 7, 10, 15, and 20 mM) of L-homoalanine in 20 mM D-homoalanine, 20 mM pyruvate, and 50 mM potassium phosphate (pH 7). After the reactions were carried out at 37° C. for 10 min, the amounts of 2-oxobutyrate produced were measured.

Experimental findings from patent US9777301B2, “Method for producing optically active amine compounds by deracemization” (INDUSTRY-ACADEMIC COOPERATION FOUNDATION, YONSEI UNIVERSITY, priority 2012, dated 2017) are described below.

Take `CC[C@H](N)C(=O)O` [L-homoalanine]: the “Effect of L-amino acid on activity of D-amino acid transaminase (FIG. 1)” value is on record as “did not lose its activity”.
